≈ marks a conversion by molar mass, not a printed value. Like-named read-outs stand apart in the source and are kept apart here.
Key:
[1] = tested on: cucumber plant; settings: in vivo
[2] = tested on: rice plant; settings: blast curative test, 200 ppm
[3] = tested on: Pyricularia oryzae; type: in vivo, Pyricularia oryzae on rice plant (variety: Asahi); settings: rice blast, curative treatment; sprayed liquid 200 ppm; 5 days after spraying
[4] = tested on: Pyricularia oryzae; type: in vivo, Pyricularia oryzae on rice plant (variety: Asahi); settings: rice blast, prevention; 200 ppm; 5 days after inoculation
[5] = tested on: Cochliobolus miyabeanus; assay: Effect of controlling rice brown spot, Experimental Example 3; type: in vivo, Cochliobolus miyabeanus on rice plant (variety: Asahi); settings: sprayed liquid 500 ppm, 5 days after inoculation
[6] = tested on: Sphaerotheca friliginea; assay: Effect of controlling cucumber powdery mildew, Experimental Example 4; type: in vivo; settings: sprayed liquid 200 ppm, 10 days after inoculation
Protocol: 10 ml of each of test liquids diluted to a predetermined concentration was sprayed over seedlings of a cucumber plant (variety: Sagami Hanpaku) grown up to the first leaf stage which has been soil cultured in an unglazed pot with a diameter of 9 cm in a green house. After allowing to stand overnight, the seedlings were sprayed for inoculation with a spore suspension of Sphaerotheca friliginea. Ten days after the inoculation, the rate of a lesion area (%) was checked and a control value was evaluated from the following equation. The degree of chemical injury against a cucumber plant was determined in the same manner as in Experimental Example.

[7] = tested on: rice plant; settings: blast prevention test, 200 ppm
[8] = tested on: rice plant; settings: in vivo
[9] = tested on: Phoma lingam; assay: Antimicrobial activity (mycelium growth inhibition, PDA medium); type: cell-based; settings: Plenodomus lingam, 24° C., read-out: ED50 value
Protocol: (§1) Experimental Example 5 (Test for Antimicrobial Activity Against Various Plant Phathogenic Fungi)
(§2) 1 ml of an acetone solution of each of test compounds and 20 ml of the PDA medium (50° C.) to prepare media containing the chemical in different concentrations, followed by charging into a petri dish with a diameter of 9 cm where it was solidified flat. On the central portion of the chemical-containing medium was inoculated a fungus-containing medium a piece of ager black-containing mycelia which was obtained by punching by means of a cork borer the tip portion of mycelia of each test fungus which had been cultured in advance in the PDA medium, followed by cultivating at 24° C. Two to six days after the cultivation, the diameter of the mycelia was measured and mycelium growth inhibiting rate was calculated from a comparison with that of a non-treated plot. The mycelium growth inhibiting rate was plotted on a logarithmic probability paper to determine an ED50 value.

[10] = tested on: Helminthosporium gramineum; assay: as above; type: cell-based; settings: 24° C., read-out: ED50 value
Protocol: as §1, §2

[11] = tested on: Curvularia sp.; assay: as above; type: cell-based; settings: 24° C., read-out: ED50 value
Protocol: as §1, §2

[12] = tested on: Alternaria padwikii; assay: as above; type: cell-based; settings: 24° C., read-out: ED50 value
Protocol: as §1, §2

[13] = tested on: Endothia parasitica; assay: as above; type: cell-based; settings: Cryphonectria parasitica, 24° C., read-out: ED50 value
Protocol: as §1, §2

[14] = tested on: Botrytis cinerea; assay: as above; type: cell-based; settings: 24° C., read-out: ED50 value
Protocol: as §1, §2

[15] = tested on: Sclerotinia fructigena; assay: as above; type: cell-based; settings: 24° C., read-out: ED50 value
Protocol: as §1, §2

[16] = tested on: Mycosphaerella melonis; assay: as above; type: cell-based; settings: 24° C., read-out: ED50 value
Protocol: as §1, §2

[17] = tested on: Diaporthe citri; assay: as above; type: cell-based; settings: 24° C., read-out: ED50 value
Protocol: as §1, §2

[18] = tested on: Glomerella cingulata; assay: as above; type: cell-based; settings: Colletotrichum gloeosporioides, 24° C., read-out: ED50 value
Protocol: as §1, §2

[19] = tested on: Sclerotinia sclerotiorum; assay: as above; type: cell-based; settings: 24° C., read-out: ED50 value
Protocol: as §1, §2

[20] = tested on: Pellicularia sasakii; assay: as above; type: cell-based; settings: 24° C., read-out: ED50 value
Protocol: as §1, §2

[21] = tested on: Fusarium nivale; assay: as above; type: cell-based; settings: Microdochium nivale, 24° C., read-out: ED50 value
Protocol: as §1, §2

[22] = tested on: Penicillium digitatum; assay: as above; type: cell-based; settings: 24° C., read-out: ED50 value
Protocol: as §1, §2

[23] = tested on: Phizoctonia solani; assay: as above; type: cell-based; settings: 24° C., read-out: ED50 value
Protocol: as §1, §2

[24] = tested on: Cochliobolus miyabeanus; assay: as above; type: cell-based; settings: Bipolaris oryzae, read-out: ED50 value
[25] = tested on: Pyricularia oryzae; assay: microbe, parasite or virus in culture; type: cell-based; settings: read-out: ED50 value

Row | Structure (SMILES) | Degree of chemical injury [1] | Degree of chemical injury [2] | Control Value [3] [%] | Control Value [4] [%] | Control Value [5] [%] | Control Value [6] [%] | Degree of chemical injury [7] | Degree of chemical injury [8] | other results
1 | Cc1cc(Oc2ccccc2C)nc(-n2nc(C)cc2C)n1 [Compound 11] | 0 | 0 | 100 | 100 | 100 | 90 | 0 | 0 | –
2 | Cc1cc(C)n(-c2ncc(C)c(Oc3ccccc3)n2)n1 [Compound 34] | 0 | 0 | 100 | 92 | 98 | 100 | 0 | 0 | –
3 | CCCCCCc1cc(Oc2ccc(Cl)cc2)nc(-n2nc(C)cc2C)n1 [Compound 47] | 0 | 0 | 100 | 100 | 90 | 79 | 0 | 0 | –
4 | Cc1cc(Oc2cccc(Cl)c2)nc(-n2nc(C)cc2C)n1 [Compound 7] | 0 | 0 | 100 | 100 | 100 | 100 | 0 | 0 | –
5 | Cc1cc(C)cc(Oc2cc(C)nc(-n3nc(C)cc3C)n2)c1 [Compound 29] | 0 | 0 | 100 | 100 | 100 | 100 | 0 | 0 | –
6 | Cc1ccc(Oc2cc(C)nc(-n3nc(C)cc3C)n2)cc1 [Compound 13] | 0 | 0 | 100 | 100 | 100 | 100 | 0 | 0 | –
7 | Cc1cc(C)n(-c2nc(C)c(C)c(Oc3ccccc3)n2)n1 [Compound 38] | 0 | 0 | 100 | 100 | 87 | 100 | 0 | 0 | IC50 [9]: 2.7 µg/mL (≈ 9.17 µM); IC50 [10]: 3.2 µg/mL (≈ 10.9 µM); IC50 [11]: 1.5 µg/mL (≈ 5.1 µM); IC50 [12]: 1.7 µg/mL (≈ 5.78 µM); IC50 [13]: 6.2 µg/mL (≈ 21.1 µM); IC50 [14]: 8.8 µg/mL (≈ 29.9 µM); IC50 [15]: 1.6 µg/mL (≈ 5.44 µM); IC50 [16]: 4 µg/mL (≈ 13.6 µM); IC50 [17]: 3.8 µg/mL (≈ 12.9 µM); IC50 [18]: 7.3 µg/mL (≈ 24.8 µM); IC50 [19]: 3.6 µg/mL (≈ 12.2 µM); IC50 [20]: 1.2 µg/mL (≈ 4.08 µM); IC50 [21]: 2.7 µg/mL (≈ 9.17 µM); IC50 [22]: 1.4 µg/mL (≈ 4.76 µM); IC50 [23]: 2 µg/mL (≈ 6.79 µM); IC50 [24]: 2.8 µg/mL (≈ 9.51 µM); IC50 [25]: 0.04 µg/mL (≈ 0.136 µM)
8 | CCOc1ccnc(-n2nc(C)cc2C)n1 [Compound 1] | 0 | 0 | 100 | 100 | 99 | 90 | 0 | 0 | –

Reference: patent US4405743A, “Pyrazolylpyrimidine derivatives” (Hokko Chemical Industry Co., Ltd., priority 1981, dated 1983)
